Source: patent US6878388B1, “Vanadium compounds for treating proliferative cell disorders” (Parker Hughes Institute, priority 2000, dated 2005)

How the values were obtained:
[1] = system: U87 human glioblastoma xenografts; experiment: SCID mouse xenograft model of human glioblastoma; format: in vivo, SCID mice
Protocol: FIGS. 1A-1B illustrate the in vivo antitumor activity of the vanadium compound, [VO(SO4)(Me2-Phen)2] against human glioblastoma and breast cancer in SCID mice. The effects of daily treatment with [VO(SO4)(Me2-Phen)2] (10 mg/kg/day) or 5% DMSO in PBS (given five days per week for four weeks beginning the day after inoculation) on tumor growth and progression of glioblastoma (FIG. 1A) and breast cancer (FIG. 1B) are illustrated. Comparisons between groups were done using the log-rank test.
The animal protocols used in this study were approved by the Parker Hughes Institute Institutional Animal Care and Use Committee (IACUC). […]
The right and left hind legs of the SCID mice were inoculated subcutaneously with 1×10^6 U87 human glioblastoma and 1×10^6 MDA-MB-231 beast cancer cells, respectively, in 0.1 mL PBS. […] Mice were monitored daily for health status as well as tumor growth and were sacrificed if they became moribund, developed tumors which impeded their ability to attain food or water, or at the ed of the six-week observation period. Tumors were measured using Vernier calipers three times per week. Tumor volumes were calculated according to the following formula, as described previously (Narla et al., Clin Cancer Res., 4: 1405-14, 1998; Friedman et al., Cancer Res., 55: 2853-2857, 1995): Tumor volume=(Width)^2(Length)/2. […]

MDA-MB-231 cells = experiment: In vitro invasion assay, Matrigel-coated Boyden chambers, MDA-MB-231; format: cell-based, human; details: 24 h preincubation, 3 experiments, read-out: Mean IC50 inhibition of invasion through Matrigel matrix
Protocol: Tumor invasion of the basement membrane is a crucial step in the complex multistage process that leads to metastatic spread. Tumor cells cross the basement membrane as they initially invade the lymphatic or vascular beds during dissemination and as they penetrate their target tissues. […]
Invasion of cancer cells treated with [VO(SO4)(Me2-Phen)2] was assayed using Matrigel-coated Costar 24-well transwell cell culture chambers (“Boyden chambers”) with 8.0-μm-pore polycarbonate filter inserts as described previously (Narla et al., Clin Cancer Res, 4: 2463-2471, 1998; Ghosh et al., Anticancer Drug Des, 14: 403-410, 1999; Albini et al., J Cell Biol, 105: 1867-1872, 1987). […] The cells were trypsinized, washed twice with serum-free medium containing BSA, counted and resuspended in a serum-free medium at 1×10^5 cells/ml. […] The invasive cells that migrated to the lower side of the filter were fixed, stained with Hema-3 solution and counted under a light microscope. Five to 10 random fields per filter were counted to determine the invasive fraction. The invasive fractions of cells treated with [VO(SO4)(Me2-Phen)2] were compared to those of DMSO-treated control cells and the percent inhibition of invasiveness was determined. […]

Question: With `Cc1ccnc2c1ccc1c(C)ccnc12.Cc1ccnc2c1ccc1c(C)ccnc12.O=S(=O)([O-])[O-].[O]=[V+2]` [[VO(SO4)(Me2-Phen)2], bis(4,7-dimethyl-1,10-phenanthroline) sulfatooxovanadium (IV)] as the compound, how does the “average size of tumor xenografts” value ([1]; U87, 1.5 months after inoculation, 10 mg/kg i.p., vehicle control 6928±653, P=0.007) read?
Answer: 3199±646 mm^3

Question: And the “mice remaining alive and free of detectable tumors for >16 days” value ([1]; U87 xenografts, 10 mg/kg/dose i.p., five days per week for four weeks)?
Answer: 40%

Question: What about the IC50 (MDA-MB-231 cells) of the same compound?
Answer: 600 ± 300 nM
